These results are taken from patent publication US20230407296A1, “Method to Regulate ALOX12-AS1 IncRNA-Mediated Alteration of ALOX12 Protein and to Screen for Novel Drugs to Alter ALOX12 Protein Level” (priority 2021, published 2023).

Each structure is given as a SMILES string.

The test system of one assay is ALOX12-AS1-201 lncRNA. In words: Nucleo-cytoplasmic translocation of ALOX12-AS1-201 in HEK293 cells (FISH, fractionation, quantitative RT-PCR). The format is cell-based, human. Conditions: 10 μM TPA, 1 hour. The procedure: Phorbol ester (12-O-Tetradecanoylphorbol 13-acetate: TPA) is an activator of protein kinase C (PKC) that has been frequently used for inducing differentiation in different cell types including myeloid cells. […] Therefore, we treated HEK293 cells with 10 μM TPA for 1 hour and observed ALOX12-AS1-201 nucleo-cytoplasmic translocation as well as measured ALOX12 protein level.
Total RNA from different cell lines was extracted with Trizol reagent (Catalog number: 15596026; ThermoFisher Scientific, Canada) as per the manufacturer's recommended protocol. […] Absolute quantification of ALOX12-AS1 lncRNA isoforms was performed in a Mastercycler®ep realplex real-time PCR system (Eppendorf, Hamburg, Germany) using SYBR green dye (Catalog number: S7563; ThermoFisher Scientific). […] Real-time PCR data quality control calculations were determined by the SAS program as described previously and the calculated PCR efficiency was between 95%-99%. Quantitative RT-PCR was conducted for different cell-line derived RNAs, and the specificity of each amplified product was confirmed by melting curve analysis. Results were expressed as copy number of specific isoforms per 100 ng of total RNA.
For RNA-FISH, cells were grown on coverslips and human tissue cryosections were adhered to glass slides. […] The cells were then fixed and analyzed by RNA-FISH. […]

The next assay has as its system ALOX12. The experiment in a line: ALOX12 catalytic activity in cell lysates (12S-HETE ELISA). The format is biochemical, human. The settings on record: lysate of TPA-induced MLC, 50 μM arachidonic acid, 15 min, 37° C.; vehicle THP-1 lysate ~6 ng. The source says: We measured ALOX12 enzyme activity of THP-1 and TPA-induced MLC cell lysates and compared them to establish the biological relevance of lncRNA-mediated downregulation of ALOX12 protein level. We used a cell-free system to avoid any limitations of intracellular arachidonic acid uptake by an in vitro cell-based system. As well, we used a platelet-derived protein-lysate as a positive control for ALOX12 enzyme activity. ALOX12 was originally discovered and characterized as an arachidonic acid peroxidizing enzyme in platelets.
ALOX12 catalytic activity was measured in a cell-free system using cell lysates derived from unactivated human platelets (positive control) and Phorbol ester (12-O-Tetradecanoylphorbol 13-acetate: TPA)/vehicle (DMSO/ethanol)-treated THP-1. ALOX12 converts arachidonate to the bioactive lipid 12(S)-hydroperoxyeicosatetraenoate (12S-HpETE). […] The cell lysates prepared in 1×PBS supplemented with 0.5% NP40, 1× Halt protease and phosphatase inhibitor cocktail 1 were incubated with 50 μM arachidonic acid (catalogue number: A0781, Tokyo Chemical Industry, USA) for 15 min at 37° C. and the amount of 12S-HETE was quantitatively measured using a commercially available Enzyme-Linked ImmunoAssay (ELISA) kit (catalogue number: ADI-900-050, Enzo Life Sciences Inc., USA) as per the manufacturer's instructions. […]
For orientation: In an ELISA, binding on a coated surface is turned into a signal by an enzyme label.

A further assay concerns ALOX12 mRNA. Conditions: A431 cells, time-dependent; cited from earlier work.

For `CCCCCCCCCCCCCC(=O)O[C@@H]1[C@@H](C)[C@@]2(O)[C@@H](C=C(CO)C[C@]3(O)C(=O)C(C)=C[C@@H]23)[C@@H]2C(C)(C)[C@]12OC(C)=O` [TPA, 12-O-Tetradecanoylphorbol 13-acetate], the ALOX12-AS1-201 nucleo-cytoplasmic translocation entry in the assay with ALOX12-AS1-201 lncRNA (FISH, vs vehicle (DMSO)) was “dramatic nucleo-cytoplasmic translocation”. In addition, the “cytosolic ALOX12-AS1-201 lncRNA abundance” value in the assay on ALOX12-AS1-201 lncRNA (subcellular fractionation and quantitative RT-PCR) is “significant increase”. In addition, the 12S-HETE production in the assay with ALOX12 is recorded as roughly 1.3 ng. Further, the “expression of ALOX12 mRNA” value in the assay on ALOX12 mRNA was “increased”.
